From patent US8568802B2, “Process for producing enriched fractions of tetrahydroxycurcumin and tetrahydrotetrahydroxy-curcumin from the extracts of Curcuma longa” (Laila Impex, priority 2005, dated 2013)

Key:
5-Lipoxygenase = 5-Lipoxygenase inhibitory activity (colorimetric, ferric xylenol orange); format: biochemical
Experimental: 5-Lipoxygenase activity: The enriched fraction of tetrahydroxycurcumin mixture, pure TC and tetrahydrotetrahydroxycurcumin fraction were screened for their 5-Lipoxygenase inhibitory potential using colorimetric method. The assay mixture contained 50 mM phosphate buffer pH 6.3, 5-Lipoxygenase, various concentrations of test substances in dimethyl sulphoxide and linoleic acid in a total volume of 0.5 mL, after 5 min incubation of above reaction mixture, 0.5 mL ferric xylenol orange reagent was added and OD was measured after two minutes at 585 nm using spectrophotometer. […] Percent inhibition was calculated by comparing absorbance of test solution with that of control.

[1] = system: carrageenin induced paw edema; test: Anti-inflammatory activity (carragenin induced paw edema method); format: in vivo, Albino wistar rats; details: at 25 mg concentration, oral, paw volume 3 h after carrageenin
Experimental: The invention also describes use of enriched tetrahydroxycurcumin fraction containing 70-100% of TC for treating anti-inflammatory conditions.
Anti-inflammatory activity (Carragenin induced paw edema method): Prior to the experiment all the animals (Albino wistar rats of either sex weighing between 180-300 g) fasted at ad libitum water and were weighed, numbered and randomly divided into groups, each containing 3 animals. Initial paw volumes were measured using plethesmometer and noted. All the groups were treated with corresponding test substance orally using gastric tube. Control group was treated with 10 mL/Kg vehicle (0.5%, carboxymethyl cellulose sodium salt). After 30 minutes, all the animals were injected subcutaneously at subplantar region of left hind paw 1% carrageenin 0.1 mL using hypodermic needle. All the animals were administered water 20 mL/Kg body weight and kept devoid of water for 3 h (maintained uniform hydration). After 3 h, paw volumes of all the animals were measured twice and average volume from two measurements were recorded. The % of inhibition of paw edema was calculated by comparing paw edema of test substance treated groups with that of control groups.

With CC(Cc1ccc(O)c(O)c1)C(C)Cc1ccc(O)c(O)c1 (centres unmarked) [NDGA, Nordihydroguaiaretic acid] as the compound, how does the “% of inhibition (5-Lipoxygenase)” value (5-Lipoxygenase; concentration 24 μg/mL) read?
Its value is 60%.

Which results are given for O=C(/C=C/c1ccc(O)c(O)c1)CC(=O)/C=C/c1ccc(O)c(O)c1 [Pure tetrahydroxycurcumin (TC), 1,7-Bis(3,4-dihydroxyphenyl)-1,6-heptadiene-3,5-dione]?
% of inhibition (5-Lipoxygenase) (5-Lipoxygenase; concentration 16 μg/mL): 60%; melting point: 302 to 304 °C

With O=C(O)Cc1ccccc1Nc1c(Cl)cccc1Cl [diclofenac sodium] as the compound, how does the “% inhibition of paw edema” value [1] read?
Its value is 63.10%.

Which “% of inhibition (5-Lipoxygenase)” value (5-Lipoxygenase; concentration 41 μg/mL) does the source give for Acetyl-keto-boswellic acid [AKBA] here?
Its value is 55%.
